Laboratory results as given in US6652890B2, “Tea catechins as cancer specific proliferation inhibitors” (Purdue Research Foundation, priority 1999, dated 2003).

Assays:
CNOX = molecular target: T1, CNOX (Mus musculus, UniProt Q8BHR2); test: CNOX activity of intact 4T1 cells; assay type: cell-based; conditions: not effective up to and including this concentration
T1 construct: endogenous in cells; host or cells: 4T1 mouse mammary carcinoma cells (intact)
T1 sequence (Q8BHR2 1-643): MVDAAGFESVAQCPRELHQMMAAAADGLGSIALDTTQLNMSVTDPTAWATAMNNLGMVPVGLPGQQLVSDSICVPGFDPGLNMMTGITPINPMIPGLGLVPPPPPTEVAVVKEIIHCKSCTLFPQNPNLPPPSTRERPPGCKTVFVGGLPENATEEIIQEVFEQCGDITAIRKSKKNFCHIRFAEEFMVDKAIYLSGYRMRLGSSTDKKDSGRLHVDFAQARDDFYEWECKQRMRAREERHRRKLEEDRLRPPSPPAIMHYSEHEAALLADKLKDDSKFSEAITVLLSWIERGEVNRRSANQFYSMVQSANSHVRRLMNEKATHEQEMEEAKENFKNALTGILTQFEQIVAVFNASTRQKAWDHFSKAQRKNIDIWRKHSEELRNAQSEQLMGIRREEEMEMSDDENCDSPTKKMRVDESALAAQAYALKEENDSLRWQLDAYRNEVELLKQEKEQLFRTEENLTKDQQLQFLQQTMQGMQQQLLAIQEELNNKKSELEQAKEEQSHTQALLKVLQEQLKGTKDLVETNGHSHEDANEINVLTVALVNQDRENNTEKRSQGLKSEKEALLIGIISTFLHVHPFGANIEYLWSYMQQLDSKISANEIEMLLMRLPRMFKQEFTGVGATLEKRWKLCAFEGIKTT
Description: A mouse mammary tumor subpopulation line 4T1 arising from a BALB/cf C3H mouse was grown in DME-10, Dulbecco's modified Eagle's medium supplemented with 5% fetal calf serum, 5% newborn calf serum, 1 mM mixed non-essential amino acids, 2 mM L-glutamine, penicillin (100 units/ml), and streptomycin (100 μg/ml) (Miller et al., 1987, Brit. J. Can. 56:561-569 and Miller et al., 1990, Invasion Metastasis 10:101-112).
NADH oxidase activity was determined as the disappearance of NADH measured at 340 nm in a reaction mixture containing 25 mM Tris-Mes buffer (pH 7.2), 1 mM KCN, and 150 μM NADH at 37° C. Activity was measured at 340 nm with reference at 430 nm using an SLM Aminco DW-2000 spectrophotometer (Milton Roy, Rochester, N.Y.) in the dual beam mode of operation with stirring and continuous recording over two intervals of 5 min each. A millimolar extinction coefficient of 6.22 was used to determine specific activity.

[1] = molecular target: T2, NADH oxidase of plasma membranes from MCF-10A human mammary epithelial (non-cancer) cells (Homo sapiens, UniProt Q8TC92); test: NADH oxidase activity of isolated plasma membrane vesicles; assay type: biochemical; conditions: EGCg dose-response, FIG. 2A
T2 construct: endogenous in cells; host or cells: MCF-10A plasma membrane vesicles
T2 sequence (Q8TC92 1-643): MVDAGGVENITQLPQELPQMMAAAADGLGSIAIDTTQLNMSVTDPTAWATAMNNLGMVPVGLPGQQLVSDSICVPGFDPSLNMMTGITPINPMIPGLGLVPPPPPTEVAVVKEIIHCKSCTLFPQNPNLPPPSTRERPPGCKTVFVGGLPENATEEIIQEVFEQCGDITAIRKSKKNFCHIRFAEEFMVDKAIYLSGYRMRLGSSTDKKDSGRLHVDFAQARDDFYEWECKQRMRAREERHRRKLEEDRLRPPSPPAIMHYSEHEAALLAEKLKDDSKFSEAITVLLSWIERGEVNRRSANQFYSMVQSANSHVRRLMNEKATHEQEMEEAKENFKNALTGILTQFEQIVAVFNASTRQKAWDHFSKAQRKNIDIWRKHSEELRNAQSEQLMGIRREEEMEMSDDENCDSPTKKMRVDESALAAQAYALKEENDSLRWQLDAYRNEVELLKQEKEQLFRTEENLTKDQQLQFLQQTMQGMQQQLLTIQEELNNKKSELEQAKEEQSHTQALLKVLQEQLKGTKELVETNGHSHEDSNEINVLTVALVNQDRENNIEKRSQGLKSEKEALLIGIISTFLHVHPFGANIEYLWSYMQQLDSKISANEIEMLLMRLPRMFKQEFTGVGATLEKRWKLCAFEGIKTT
Description: Cultured cells were collected by centrifugation for 6-15 min at 175-1000×g. The cell pellets were resuspended in 0.2 mM EDTA in 1 mM NaHCO3 in an approximate ratio of 1 ml per 10^8 cells and incubated on ice for 10-30 min to swell the cells. […] To estimate breakage, the cells were monitored by light microscopy before and after homogenization. At least 90% cell breakage without breakage of nuclei was achieved routinely.
The homogenates were centrifuged for 10 min at 175×g to remove unbroken cells and nuclei and the supernatant was centrifuged a second time at 1.4×10^6 g·min (e.g., 1 h at 23,500×g) to prepare a plasma membrane-enriched microsome fraction. The supernatant was discarded and the pellets were resuspended in 0.2 M potassium phosphate buffer in a ratio of ˜1 ml per pellet from 5×10^8 cells. […] The purity of the plasma membrane was determined to be >90% by electron microscope morphometry. […]
NADH oxidase activity was determined as the disappearance of NADH measured at 340 nm in a reaction mixture containing 25 mM Tris-Mes buffer (pH 7.2), 1 mM KCN to inhibit low levels of mitochondrial oxidase activity, and […] at 37° C. with stirring. Activity was measured using a Hitachi U3210 or SLM Aminco DW2000 spectrophotometer with continuous recording over two intervals of 5 min each. […]

- Concentration effective in inhibiting the residual CNOX activity (CNOX): > 10^−6 M
- Effect on NADH oxidase activity [1]: without effect
Substance: (−) - epigallocatechin gallate [EGCg]
